Source: PubChem BioAssay AID1845216 (Molecular Pharmacology Branch, DTP, NCI, 2023)

Test system: SW 982 tumor spheroid viability
Experiment: Anticancer human tumor SW 982 cell line growth inhibition;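 further: spheroids exposed to compound for 7 days before readout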
Settings: spheroids with HUVEC and MSC; for IC50: curve of first compound; for viability, T/C: stronger effect = lower value
How it was run: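 Complex tumor spheroids combined malignant cells with endothelial cells and mesenchymal stem cells. DNA-damaging drugs and DNA repair inhibitors were tested alone and in combination, at half-log dilutions down from clinical Cmax (top 10 microM if Cmax unknown), 0.25% DMSO final.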

O=C(c1cc(Cc2n[nH]c(=O)c3ccccc23)ccc1F)N1CCN(C(=O)C2CC2)CC1 + COc1cc2c(cc1O)CCNC21CSC2c3c(OC(C)=O)c(C)c4c(c3C(COC1=O)N1C(O)C3Cc5cc(C)c(OC)c(O)c5C(C21)N3C)OCO4
IC50 (second compound 30 pM): 7.8 µM
IC50 (second compound 94.9 pM): 16.3 µM
IC50 (second compound 0.0003 µM): 7.27 µM
IC50 (second compound 0.000949 µM): < 0.0949 µM
IC50 (second compound 0.003 µM): < 0.0949 µM
viability, T/C (second compound 30 pM, first compound 0.0949 µM): 96.8%
viability, T/C (second compound 30 pM, first compound 0.3 µM): 93.2%
viability, T/C (second compound 30 pM, first compound 0.949 µM): 97.8%
viability, T/C (second compound 30 pM, first compound 3 µM): 71.7%
viability, T/C (second compound 30 pM, first compound 9.49 µM): 47.4%
viability, T/C (second compound 30 pM, first compound 30 µM): 38.8%
viability, T/C (second compound 94.9 pM, first compound 0.0949 µM): 93.1%
viability, T/C (second compound 94.9 pM, first compound 0.3 µM): 91.4%
viability, T/C (second compound 94.9 pM, first compound 0.949 µM): 92.6%
viability, T/C (second compound 94.9 pM, first compound 3 µM): 76.2%
viability, T/C (second compound 94.9 pM, first compound 9.49 µM): 59.8%
viability, T/C (second compound 94.9 pM, first compound 30 µM): 39.9%
viability, T/C (second compound 0.0003 µM, first compound 0.0949 µM): 74.4%
viability, T/C (second compound 0.0003 µM, first compound 0.3 µM): 80.7%
viability, T/C (second compound 0.0003 µM, first compound 0.949 µM): 70.5%
viability, T/C (second compound 0.0003 µM, first compound 3 µM): 70.8%
viability, T/C (second compound 0.0003 µM, first compound 9.49 µM): 43.8%
viability, T/C (second compound 0.0003 µM, first compound 30 µM): 28.1%
viability, T/C (second compound 0.000949 µM, first compound 0.0949 µM): 32.8%
viability, T/C (second compound 0.000949 µM, first compound 0.3 µM): 27.3%
viability, T/C (second compound 0.000949 µM, first compound 0.949 µM): 26.8%
viability, T/C (second compound 0.000949 µM, first compound 3 µM): 18.3%
viability, T/C (second compound 0.000949 µM, first compound 9.49 µM): 11.1%
viability, T/C (second compound 0.000949 µM, first compound 30 µM): 2.5%
viability, T/C (second compound 0.003 µM, first compound 0.0949 µM): 0.52%
viability, T/C (second compound 0.003 µM, first compound 0.3 µM): 0.45%
viability, T/C (second compound 0.003 µM, first compound 0.949 µM): 0.51%
viability, T/C (second compound 0.003 µM, first compound 3 µM): 0.63%
viability, T/C (second compound 0.003 µM, first compound 9.49 µM): 0.83%
viability, T/C (second compound 0.003 µM, first compound 30 µM): 1.26%

COc1ccc([C@@H](O)c2cc(-c3ncnc4cc(N5CCOCC5)ccc34)c(F)cc2Cl)nn1 + COc1cc2c(cc1O)CCNC21CSC2c3c(OC(C)=O)c(C)c4c(c3C(COC1=O)N1C(O)C3Cc5cc(C)c(OC)c(O)c5C(C21)N3C)OCO4
IC50 (second compound 30 pM): 7.19 µM
IC50 (second compound 94.9 pM): 4.6 µM
IC50 (second compound 0.0003 µM): 1.07 µM
IC50 (second compound 0.000949 µM): < 0.0316 µM
IC50 (second compound 0.003 µM): < 0.0316 µM
viability, T/C (second compound 30 pM, first compound 0.0316 µM): 102%
viability, T/C (second compound 30 pM, first compound 0.1 µM): 102%
viability, T/C (second compound 30 pM, first compound 0.316 µM): 96.4%
viability, T/C (second compound 30 pM, first compound 1 µM): 88.8%
viability, T/C (second compound 30 pM, first compound 3.16 µM): 79.6%
viability, T/C (second compound 30 pM, first compound 10 µM): 38.8%
viability, T/C (second compound 94.9 pM, first compound 0.0316 µM): 96.3%
viability, T/C (second compound 94.9 pM, first compound 0.1 µM): 97.3%
viability, T/C (second compound 94.9 pM, first compound 0.316 µM): 93.4%
viability, T/C (second compound 94.9 pM, first compound 1 µM): 70.8%
viability, T/C (second compound 94.9 pM, first compound 3.16 µM): 65.9%
viability, T/C (second compound 94.9 pM, first compound 10 µM): 26.9%
viability, T/C (second compound 0.0003 µM, first compound 0.0316 µM): 84.1%
viability, T/C (second compound 0.0003 µM, first compound 0.1 µM): 83.1%
viability, T/C (second compound 0.0003 µM, first compound 0.316 µM): 84%
viability, T/C (second compound 0.0003 µM, first compound 1 µM): 48%
viability, T/C (second compound 0.0003 µM, first compound 3.16 µM): 23.6%
viability, T/C (second compound 0.0003 µM, first compound 10 µM): 6.67%
viability, T/C (second compound 0.000949 µM, first compound 0.0316 µM): 36.2%
viability, T/C (second compound 0.000949 µM, first compound 0.1 µM): 32.6%
viability, T/C (second compound 0.000949 µM, first compound 0.316 µM): 19.4%
viability, T/C (second compound 0.000949 µM, first compound 1 µM): 4.23%
viability, T/C (second compound 0.000949 µM, first compound 3.16 µM): 0.86%
viability, T/C (second compound 0.000949 µM, first compound 10 µM): 0.73%
viability, T/C (second compound 0.003 µM, first compound 0.0316 µM): 0.88%
viability, T/C (second compound 0.003 µM, first compound 0.1 µM): 0.57%
viability, T/C (second compound 0.003 µM, first compound 0.316 µM): 0.41%
viability, T/C (second compound 0.003 µM, first compound 1 µM): 1.06%
viability, T/C (second compound 0.003 µM, first compound 3.16 µM): 1.12%
viability, T/C (second compound 0.003 µM, first compound 10 µM): 1.01%
